Laboratory results: patent US20140038959A1, “METHODS OF TREATING TUMORS” (Genentech, Inc., priority 2011, published 2014)
Read-outs that look alike come from different tables or passages of the source. Numbered stars: 1 amine (or outer) side, 2 acyl side, 3 side chain; on linkers, the order of the positions; unused ones are H or OH. Bridge positions count the residues as written; N and C are the ends. Square brackets hold non-standard residues; d marks the D form. Peptide text beside a SMILES is read from it. I, II: the chains in the order shown. Hexamethylenediamine = C(CCCN[*:2])CCN[*:1]; Dip = N[C@H](C(=O)O)C(c1ccccc1)c1ccccc1; Chg = N[C@H](C(=O)O)C1CCCCC1; NMeA = CN[C@@H](C)C(=O)O

Experiments:
[1] = system: EBC1-shPAK1 cells; assay: pharmarray viability screen, 200 compound library, with or without PAK1 knockdown (CellTiter-Glo); assay type: cell-based, human; conditions: for EC50: Homo sapiens
[2] = system: NCI-H441; assay: Cell Titer Glo viability after PAK1 siRNA and BV6; assay type: cell-based, human; conditions: transient PAK1 siRNA followed by 5 μM BV6
Experimental: (§1) FIG. 7—(A) Combinatorial accumulation of cleaved PARP and caspase-3 by PAK1 and IAP antagonism. Cells were incubated with Dox and […] for indicated time points, lysed and then used for Western blot analysis (B) Dual PAK1 and IAP inhibition results in a synergistic decrease in viability of SK-MES-1 (squamous subtype) and NCI-H441 (adenocarcinoma subtype) NSCLC cells. Cellular ATP consumption was determined via Cell Titer Glo assay following transient siRNA-mediated inhibition of PAK1 and 5 μM BV6 treatment as indicated.
(§2) The prosurvival activity of IAP proteins is antagonized by the second mitochondrial activator of caspases (SMAC) (C. Du et al., Cell 2000 102:33-42; A. M. Verhagen, et al. Cell 2000 102:43-53) and a number of antagonists have been described that mimic SMAC amino-terminal peptides to disrupt the association of IAP with SMAC and activated caspase-9 (K. Zobel et al., ACS Chem. Biol. 2006 1:525-533; E. Varfolomeev et al., Cell 2007 131:669-681). In particular, BV6 (C. Ndubaku et al., Future Med. Chem. 2009 1(8):1509) represents one such class of small molecule antagonist that binds to baculovirus TAP repeat (BIR) domains and promotes rapid auto-ubiquitination and proteasomal degradation of c-TAP 1 and cIAP-2 (Zobel supra). […]

[3] = system: SK-MES-1; assay: Cell Titer Glo viability after PAK1 siRNA and BV6; assay type: cell-based, human; conditions: transient PAK1 siRNA followed by 5 μM BV6
Experimental: as §1, §2

[4] = system: SKMES-1, Calu-6, Cal-120 cells; assay: CellTiter-Glo viability after PAK1 and PAK2 siRNA plus MEK and PI3K inhibitors; assay type: cell-based, human; conditions: with PAK1 and PAK2 siRNA, 3 days
Experimental: FIG. 11—Combinatorial effect of PAK1, PAK2, MEK and PI3K inhibition on tumor cell viability. CellTiter-Glo® (CTG) assays of cellular viability were performed following PAK1 and PAK2 siRNA transfection and compound treatment for 3 days, as indicated.
Taken together, these studies provide strong preclinical support that breast and NSCLC may provide several opportunities for rational combination therapies with PAK1 inhibitors. In one embodiment of the present invention there is provided a method of treating tumors comprising contacting the tumor with a PAK 1 inhibitor and a second anti-hyperproliferative compound.

[5] = system: MDA-MB-175 cells; assay: Annexin V/PI fluorescence-activated cell sorting after IPA-3 for 48 h; assay type: cell-based, human
From the text: FIG. 1-Analysis of PAK1 genomic amplification and functional role in human breast tumors. (A) Genomic Identification of Significant Targets in Cancer (GISTIC) analysis of 11q13 copy number gains. Points are proportionately spaced and arranged in genome order. Vertical line represents chromosome location of the PAK1 gene. […] (B) PAK1 DNA copy and mRNA expression dot plot depicts the relationship of DNA copy number to the 226507 at Affymetrix MAS 5.0 signal for 51 tumor samples. The Pearson correlation statistic (0.75) is shown for the plot. The solid line represents the best-fit line through these points. (C) Increasing proportion of Annexin V-positive cells following knockdown of PAK1 expression is shown for 3 breast cancer cell lines with focal PAK1 genomic amplification, MDA-MB-175, HCC1500 and MDA-MB-134 IV. Cells were harvested 3-5 days following transient transfection of pooled siRNA oligonucleotides. (D) Fluorescence-activated cell sorting analysis for Annexin V/PI. MDA-MB-175 cells were cultured in the presence or absence of IPA-3 for 48 h. Annexin V/PI staining was then done to assess apoptosis/necrosis. […]
To ascertain the role of PAK1 in cell survival, the quantity of cytoplasmic histone-associated DNA fragments was quantified using the Cell Death Detection ELISA Plus kit from Roche (Mannheim, Germany). […]

[6] = system: EBC-1 cells; assay: cell killing by pharmacological PAK or Rac1 inhibitors combined with IAP inhibition; assay type: cell-based, human; conditions: pharmacological inhibitors of PAK or Rac1 catalytic activity; FIG. 7A
From the text: The prosurvival activity of IAP proteins is antagonized by the second mitochondrial activator of caspases (SMAC) (C. Du et al., Cell 2000 102:33-42; A. M. Verhagen, et al. Cell 2000 102:43-53) and a number of antagonists have been described that mimic SMAC amino-terminal peptides to disrupt the association of IAP with SMAC and activated caspase-9 (K. Zobel et al., ACS Chem. Biol. 2006 1:525-533; E. Varfolomeev et al., Cell 2007 131:669-681). In particular, BV6 (C. Ndubaku et al., Future Med. Chem. 2009 1(8):1509) represents one such class of small molecule antagonist that binds to baculovirus TAP repeat (BIR) domains and promotes rapid auto-ubiquitination and proteasomal degradation of c-TAP 1 and cIAP-2 (Zobel supra). Consistent with the small molecule screening data, strong combinatorial activity was confirmed for dual inhibition of PAK1 and IAP in EBC-1 cells (FIG. 5A). […] To further explore this apparent synergy we investigated possible molecular mechanisms of PAK1 and IAP inhibition on the induction of apoptosis. […] Lastly, additional NSCLC cell lines, including those that are only minimally responsive to the activity of either single agent, were examined for anti-tumor efficacy resulting from combined inhibition of PAK1 and IAP.

[7] = system: EBC-1 cells; assay: PF-3758309 with BV6, in vitro combination efficacy, 4-day CellTiterGlo viability assay (Calcusyn); assay type: cell-based, human; conditions: Chou and Talalay method, CI ≦0.3 = strong synergy
Experimental: FIG. 10—Combination of ATP-competitive pan-PAK inhibitor PF-3758309 (B. W. Murray et al. Proc. Nat. Acad. Sci. USA 2010 107(20):9446-9471 and IAP small molecule antagonist results in apoptosis of squamous NSCLC cells. (A) Catalytic inhibition of PAK1 via PF-3758309 treatment was tested with BV6 for in vitro combination efficacy in EBC-1 cells using a 4-day CellTiterGlo viability assay. Calcusyn, a program utilizing the Chou and Talalay (Chou T C, Talalay P. Quantitative analysis of dose-effect relationships: the combined effects of multiple drugs or enzyme inhibitors. Adv. Enzyme Regul. 1984; 22:27-55) method of calculating synergy, was used to calculate the combination index and, thus, determine the level of synergy. Strong synergy, as indicated by combination index (CI) values ≦0.3, was observed (CI=0.113).
A determination of a synergistic interaction between a PAK1 inhibitor and a second anti-hyperproliferative agent may be based on the results obtained from the assays described herein. The combinations provided by this invention have been evaluated in several assay systems, and the data can be analyzed utilizing a standard program for quantifying synergism, additivism, and antagonism among anticancer agents. The program preferably utilized is that described by Chou and Talalay, in “New Avenues in Developmental Cancer Chemotherapy,” Academic Press, 1987, Chapter 2. […]

[8] = system: Cells transfected with XIAP-specific siRNA; assay: Cell Titer Glo viability after XIAP siRNA and PAK SMI; assay type: cell-based; conditions: XIAP siRNA 48 h, then PAK SMI 72 h; p<0.0001
Experimental: Cells were transfected with non-targeting control (NTC) or XIAP-specific siRNA oligonucleotides for 48 h prior to treatment with DMSO or PAK SMI as indicated for an additional 72 h. Cell viability was determined via Cell Titer Glo assay and results represent mean±standard deviation from three experiments. (B) Combined antagonism of XIAP and PAK1 promotes efficient cleavage of PARP and caspase-3. XIAP siRNA oligonucleotides were transfected for 72 h prior to treatment with DMSO or […] PAK SMI.

[9] = single agent vs combination with PAK1 knockdown
[10] = 72 h, read-out: Single agent EC50
[11] = EBC-1-shPAK1 cells without PAK1 knockdown, 72 hr compound treatment, read-out: Single agent EC50
[12] = PAK1 knockdown shRNA (300 ng/mL doxycycline 3 days prior) and compound, 72 hr, read-out: Combo PAKi EC50

With `O=c1[nH]c2ccccc2n1C1CCN(Cc2ccc(-c3nc4cc5[nH]cnc5cc4nc3-c3ccccc3)cc2)CC1` [Akt inhibitor VIII] the “Fold change in EC50” value [1, 9] was 1.58.

`CN[C@@H](C)C(=O)N[C@H](C(=O)N1CCC[C@H]1C(=O)N[C@H](C(=O)NCCCCCCNC(=O)[C@@H](NC(=O)[C@@H]1CCCN1C(=O)[C@@H](NC(=O)[C@H](C)NC)C1CCCCC1)C(c1ccccc1)c1ccccc1)C(c1ccccc1)c1ccccc1)C1CCCCC1` [BV6] (I: H-[NMeA][Chg]P[Dip] / II: H-[NMeA][Chg]P[Dip]; linker I:C-II:C via Hexamethylenediamine) was tested, and the cell viability [2] was “significant reduction”, the cell viability [3] was “significant reduction” and the “Fold change in EC50” value [1, 9] was 57.54.

In the case of `CS(=O)(=O)N1CCN(Cc2cc3nc(-c4cccc5[nH]ncc45)nc(N4CCOCC4)c3s2)CC1` [GDC-0941], the “combinatorial efficacy, reduced cellular viability” value [4] is reported as “Combinatorial efficacy”.

`Oc1ccc2ccccc2c1SSc1c(O)ccc2ccccc12` [IPA-3] was tested, and the “induction of apoptosis, fold increase (Annexin-V/propidium iodide)” value [5] was 7 fold and the “cell killing combined with IAP inhibition” value [6] was “enhanced cell killing”.

With `CCN(CC)CCCC(C)Nc1nc(C)cc(Nc2ccc3nc(C)cc(N)c3c2)n1` (stereo not drawn) [NSC23766] the “cell killing combined with IAP inhibition” value [6] was “enhanced cell killing”.

For `Cc1nc(Nc2n[nH]c3c2CN(C(=O)N[C@H](CN(C)C)c2ccccc2)C3(C)C)c2sccc2n1` [PF-3758309], the “combination index (CI)” value [7] was 0.113, the “proapoptotic activity with XIAP down-regulation” value [8] was “potentiates the proapoptotic activity” and the “cell killing combined with IAP inhibition” value [6] was “enhanced cell killing”.

In the case of `N#CC(=C(/N)Sc1ccccc1N)/C(C#N)=C(\N)Sc1ccccc1N` [U0126], the “Fold change in EC50” value [1] is reported as 8.45, the EC50 [1, 10] is reported as 19.5 µM and the EC50 ([1]; read-out: Combo PAKi EC50) is reported as 2.3 µM.

`COc1cc2c(Nc3ccc(Br)cc3F)ncnc2cc1OCC1CCN(C)CC1` [ZD6474] was tested, and the EC50 [1, 11] was no less than 20 µM, the EC50 [1, 12] was 6.88 µM and the “Fold change in EC50” value [1, 9] was 2.91.

`CN(C)c1nc(N(C)C)nc(N(C)C)n1` [altretamine] was tested, and the EC50 [1, 11] was no less than 20 µM, the EC50 [1, 12] was 3.94 µM and the “Fold change in EC50” value [1, 9] was 5.07.

With `Cc1nc(Nc2ncc(C(=O)Nc3c(C)cccc3Cl)s2)cc(N2CCN(CCO)CC2)n1` [dasatinib] the EC50 [1, 11] was 8.29 µM, the EC50 [1, 12] was 1.53 µM and the “Fold change in EC50” value [1, 9] was 5.43.

For `C#Cc1cccc(Nc2ncnc3cc(OCCOC)c(OCCOC)cc23)c1` [erlotinib], the “Fold change in EC50” value [1] was 15.02, the EC50 [1, 10] was no less than 20 µM and the EC50 ([1]; read-out: Combo PAKi EC50) was 1.56 µM.

`CS(=O)(=O)CCNCc1ccc(-c2ccc3ncnc(Nc4ccc(OCc5cccc(F)c5)c(Cl)c4)c3c2)o1` [lapatinib] was tested, and the EC50 [1, 11] was 6.31 µM, the EC50 [1, 12] was 0.86 µM and the “Fold change in EC50” value [1, 9] was 7.34.

For `O=C1[O][Pt]2([NH][C@@H]3CCCC[C@H]3[NH]2)[O]C1=O` [oxaliplatin], the “Fold change in EC50” value [1] was 4.23.
